According to patent US20100222421A1, “Usage of Baicalein in the Preparation of a Pharmaceutical Composition for the Treatment of Traumatic Brain Injury” (National Defense Medical Center, priority 2009, published 2010):

Test system: degenerating neurons (FJB-positive cells) in cortical contusion margin
Test: Neuronal degeneration, FluoroJade B (FJB) staining
Assay type: in vivo, rat
Conditions: single-dose 30 mg kg^-1 i.p., 1 day post-injury, P<0.05
Method: A previously described CCI injury procedure was utilized (Chen et al., 2003). Male Sprague-Dawley rats, which have body weight of 250-300 g, were anaesthetized with sodium pentobarbital (i.p.; 50 mgkg^−1; Rhone Merieux, Harlow, UK) and placed in a stereotaxic frame. A 5-mm craniotomy was performed over the left parietal cortex, centered on the coronal suture and 3 mm lateral to the sagittal suture. Considerable care was taken to avoid injury to the underlying dura. Injury was made using a pneumatic piston with a rounded metal tip (2.5 mm diameter) that was angled 22.5° C. to the vertical so that the tip was perpendicular with the brain surface at the centre of the craniotomy. A velocity of 4 ms^−1 and a deformation depth 2 mm below the dura were used. The bone flap was immediately replaced and sealed, and the scalp was closed with sutures. Body temperature was monitored throughout the surgery by a rectal probe; temperature was maintained at 37.0±0.5° C. using a heated pad. […] Testing after injury was as follows: (1) real-time quantitative RT-PCR analysis for TNF-α, IL-1β and IL-6 mRNA expression at 6 h post-injury (n=7 for each group); (2) FluoroJade B (FJB) staining, TNF-α, IL-1β and IL-6 immunohistochemistry, as well as ELISA at 24 h post-injury to assess degenerative neurons and to determine cytokine expression (n=7 for each group). […]

## O=c1cc(-c2ccccc2)oc2cc(O)c(O)c(O)c12 [baicalein]
  reduction of the number of FJB-positive cells versus vehicle: 31%
